Our source for the EC50 values is US20210155644A1, “CYCLOPENTENYL PURINE DERIVATIVE OR SALT THEREOF” (Fujifilm Corporation, priority 2018, published 2021).

For the experiment, the system named is adenovirus type 6 (ADV6). In words: Evaluation of anti-adenovirus activity: CRL-11516 cells infected with ADV6, anti-hexon staining, count of stained cells. Type of experiment: cell-based. As for the experimental part:
A system in which CRL-11516 cells (available from ATCC) were infected with adenovirus type 6 (hereinafter, referred to as ADV6) was constructed, and a test for evaluating the anti-adenovirus activity of the compound according to the embodiment of the present invention and the compound of Comparative Example was carried out using the system. The test for evaluating the anti-adenovirus activity was carried out according to the method described below.
CRL-11516 cells were added to a 96-well plate at a cell density of 1×10^4 cells/well and cultured at 37° C. for 24 hours. After the culture was completed, the cell culture liquid was removed, and a serial dilution (100 μL) of the compound according to the embodiment of the present invention or the compound of Comparative Example was added. ADV6 (corresponding to 50TCID50) was added thereto, followed by culturing at 37° C. for 48 hours.
After the culture was completed, the infected cells were stained using Adeno-X Rapid Titer Kit (manufactured by Takara Bio Inc.). 100% methanol was added thereto and the cells were fixed at −20° C. for 10 minutes. The plate was washed three times with phosphate buffered saline (hereinafter, referred to as PBS) and then Mouse Anti-Hexon Antibody was added thereto, followed by incubation at 37° C. for 1 hour. After the incubation was completed, the plate was washed three times with PBS, and Rat Anti-Mouse Antibody was added thereto, followed by incubation at 37° C. for 1 hour. After the incubation was completed, a mixed staining solution of Stable Peroxidase Buffer:DAB Substrate=10:1 was added thereto, followed by incubation at room temperature for 10 minutes for staining of the cells.
The number of dark brown-stained cells was counted under a microscope, and the concentration of the test drug that reduces the dark brown-stained cells by 50% was defined as EC50. EC50 values were calculated for the triplicate test results, and a mean value and a standard deviation thereof were determined.

Where [1] appears, read: CRL-11516 cells infected with ADV6, 48 hours culture, concentration reducing dark brown-stained cells by 50%; read-out: Anti-AdV activity EC50.
The mark [2] stands for this setting: Human mastadenovirus C, 48 h, CRL-11516 cells infected with ADV6, 48 hours culture, concentration reducing dark brown-stained cells by 50%; read-out: Anti-AdV activity EC50.

A word on the EC50: it is the concentration needed to bring the measured effect to its halfway point.

Where two headings read alike, the source gives them in different places.

For `COc1nc(N)nc2c1ncn2[C@H]1C=C[C@@H](COP(=O)(N[C@@H](C)C(=O)OC(C)C)Oc2ccccc2)C1` (stereo partly drawn) [Example 2-2-12, isopropyl ((((1S,4R)-4-(2-amino-6-methoxy-9H-purin-9-yl)cyclopent-2-en-1-yl)methoxy)(phenoxy)phosphoryl)-L-alaninate], under setting [1], the EC50 lay within 100 to 1000 nM.

For `CC(C)OC(=O)[C@H](C)N[P@@](=O)(OC[C@@H]1C=C[C@H](n2cnc3c(N4CCC4)nc(N)nc32)C1)Oc1ccccc1` [Example 2-2-37, isopropyl ((R)-(((1S,4R)-4-(2-amino-6-(azetidin-1-yl)-9H-purin-9-yl)cyclopent-2-en-1-yl)methoxy)(phenoxy)phosphoryl)-L-alaninate], the EC50 under setting [2] lay in the range of 10 to 100 nM.

Consider `CCOc1nc(N)nc2c1ncn2[C@H]1C=C[C@@H](CO[P@@](=O)(N[C@@H](C)C(=O)OC(C)C)Oc2ccccc2)C1` [Example 2-2-18, Isopropyl ((S)-(((1S,4R)-4-(2-amino-6-ethoxy-9H-purin-9-yl)cyclopent-2-en-1-yl)methoxy) (phenoxy)phosphoryl)-L-alaninate], for which the EC50 under setting [2] was in the range of 100 to 1000 nM. Take `COC(=O)[C@H](C)NP(=O)(OC[C@@H]1C=C[C@H](n2cnc3c(OC)nc(N)nc32)C1)Oc1ccccc1` (stereo partly drawn) [Example 2-2-16, Methyl ((((1S,4R)-4-(2-amino-6-methoxy-9H-purin-9-yl)cyclopent-2-en-1-yl)methoxy) (phenoxy)phosphoryl)-L-alaninate]: under setting [1], the EC50 lay in the range of 10 to 100 nM. On the same count and under the same terms, then `CC(C)OC(=O)[C@H](C)NP(=O)(OC[C@@H]1C=C[C@H](n2cnc3c(Cl)nc(N)nc32)C1)Oc1ccccc1` (stereo partly drawn) [Example 2-2-1, isopropyl ((((1S,4R)-4-(2-amino-6-chloro-9H-purin-9-yl)cyclopent-2-en-1-yl)methoxy)(phenoxy)phosphoryl)-L-alaninate], with 100 to 1000 nM. With `CC(C)OC(=O)[C@H](C)NP(=O)(OCCSC(=O)C(C)(C)C)OC[C@@H]1C=C[C@H](n2cnc3c(Cl)nc(N)nc32)C1` (stereo partly drawn) [Example 1-2-73, isopropyl ((((1S,4R)-4-(2-amino-6-chloro-9H-purin-9-yl)cyclopent-2-en-1-yl)methoxy)(2-(pivaloylthio)ethoxy)phosphoryl)-L-alaninate], the EC50 (Human mastadenovirus C; CRL-11516 cells infected with ADV6, 48 hours culture, concentration reducing dark brown-stained cells by 50%; read-out: Anti-AdV activity EC50) was less than 10 nM. Consider `COc1nc(N)nc2c1ncn2[C@H]1C=C[C@@H](COP(=O)(N[C@@H](C)C(=O)OC(C)C)Oc2ccccc2)C1` (stereo partly drawn) [Example 4-4-1, Isopropyl ((((1 S,4R)-4-(2-amino-6-methoxy-9H-purin-9-yl)cyclopent-2-en-1-yl)methoxy)(phenoxy)phosphoryl)-L-alaninate], for which, under setting [1], the EC50 lay in the range of 10 to 100 nM.

As for `COc1nc(N)nc2c1ncn2[C@H]1C=C[C@@H](COP(=O)(N[C@@H](C)C(=O)OC(C)C)Oc2cccc3ccccc23)C1` (stereo partly drawn) [Example 6-2-25], the EC50 under setting [1] was less than 10 nM. Take `COC(=O)[C@H](C)NP(=O)(OC[C@@H]1C=C[C@H](n2cnc3c(Cl)nc(N)nc32)C1)Oc1ccc(Cl)cc1` (stereo partly drawn) [Example 1-2-4, methyl ((((1S,4R)-4-(2-amino-6-chloro-9H-purin-9-yl)cyclopent-2-en-1-yl)methoxy)(4-chlorophenoxy)phosphoryl)-L-alaninate]: the concentration giving a half-maximal response (EC50) under setting [1] is less than 10 nM. Still for that read-out and setting: then `COc1nc(N)nc2c1ncn2[C@H]1C=C[C@@H](COP(=O)(N[C@@H](C)C(=O)OC(C)C)Oc2ccc(Cl)cc2)C1` (single isomer, unassigned) [Example 4-8-1], with 10 to 100 nM. Consider `COc1nc(N)nc2c1ncn2[C@H]1C=C[C@@H](COP(=O)(N[C@@H](C)C(=O)OC2CC2)Oc2ccccc2)C1` (stereo partly drawn) [Example 1-2-58, cyclopropyl ((((1S,4R)-4-(2-amino-6-methoxy-9H-purin-9-yl)cyclopent-2-en-1-yl)methoxy)(phenoxy)phosphoryl)-L-alaninate], for which the EC50 under setting [2] lay within 10 to 100 nM. With `COc1nc(N)nc2c1ncn2[C@H]1C=C[C@@H](COP(=O)(OCCSSCCOCc2ccccc2)OCCSSCCOCc2ccccc2)C1` [Example 1-2-8, ((1S,4R)-4-(2-amino-6-methoxy-9H-purin-9-yl)cyclopent-2-en-1-yl)methylbis(2-((2-(benzyloxy)ethyl)disulfanyl)ethyl)phosphate], under setting [1], the concentration giving a half-maximal response (EC50) fell in the range of 10 to 100 nM.

Regarding `CCOc1nc(N)nc2c1ncn2[C@H]1C=C[C@@H](CO[P@](=O)(N[C@@H](C)C(=O)OC(C)C)Oc2ccccc2)C1` [Example 2-2-17, isopropyl ((R)-(((1S,4R)-4-(2-amino-6-ethoxy-9H-purin-9-yl)cyclopent-2-en-1-yl)methoxy)(phenoxy)phosphoryl)-L-alaninate], the EC50 under setting [2] was less than 10 nM. With `CC(C)OC(=O)[C@H](C)N[P@@](=O)(OC[C@@H]1C=C[C@H](n2cnc3c(OC4CCC4)nc(N)nc32)C1)Oc1ccccc1` [Example 2-2-35, isopropyl ((R)-(((1S,4R)-4-(2-amino-6-cyclobutoxy-9H-purin-9-yl)cyclopent-2-en-1-yl)methoxy)(phenoxy)phosphoryl)-L-alaninate], the EC50 under setting [2] was 10 to 100 nM.

Regarding `CC(C)OC(=O)[C@H](C)NP(=O)(OC[C@@H]1C=C[C@H](n2cnc3c(Cl)nc(N)nc32)C1)Oc1ccccc1` (stereo partly drawn) [Example 4-3-2, Isopropyl ((((1 S,4R)-4-(2-amino-6-chloro-9H-purin-9-yl)cyclopent-2-en-1-yl)methoxy)(phenoxy)phosphoryl)-L-alaninate], the EC50 under setting [1] lay in the range of 100 to 1000 nM. Regarding `COC(=O)[C@H](C)NP(=O)(OC[C@@H]1C=C[C@H](n2cnc3c(Cl)nc(N)nc32)C1)Oc1ccc(Cl)cc1` (stereo partly drawn) [Example 4-5-2, methyl ((((1 S,4R)-4-(2-amino-6-chloro-9H-purin-9-yl)cyclopent-2-en-1-yl)methoxy)(4-chlorophenoxy)phosphoryl)-L-alaninate], the EC50 under setting [1] was in the range of 10 to 100 nM. Still for that read-out and setting: then `COC(=O)[C@H](C)NP(=O)(OCCSC(=O)C(C)(C)C)OC[C@@H]1C=C[C@H](n2cnc3c(OC)nc(N)nc32)C1` (stereo partly drawn) [Example 4-6-2, ((((1S,4R)-4-(2-amino-6-methoxy-9H-purin-9-yl)cyclopent-2-en-1-yl)methoxy)(2-(pivaloylthio)ethoxy)phosphoryl)-L-alaninate], with less than 10 nM.

For `COc1nc(N)nc2c1ncn2[C@H]1C=C[C@@H](COP(=O)(N[C@@H](CC(C)C)C(=O)OC(C)C)Oc2ccccc2)C1` (single isomer, unassigned) [Example 7-1-2], under setting [1], the EC50 lay within 100 to 1000 nM. `COc1nc(N)nc2c1ncn2[C@H]1C=C[C@@H](COP(=O)(N[C@@H](C)C(=O)OC(C)C)Oc2ccc(Cl)cc2)C1` (stereo partly drawn) [Example 1-2-72, isopropyl ((((1S,4R)-4-(2-amino-6-methoxy-9H-purin-9-yl)cyclopent-2-en-1-yl)methoxy)(4-chlorophenoxy)phosphoryl)-L-alaninate]: under setting [2], the concentration giving a half-maximal response (EC50) lay within 10 to 100 nM. On to `COCCOc1cccc(OP(=O)(N[C@@H](C)C(=O)OC(C)C)OC[C@@H]2C=C[C@H](n3cnc4c(OC)nc(N)nc43)C2)c1` (stereo partly drawn) [Example 6-2-23, isopropyl ((((1S,4R)-4-(2-amino-6-methoxy-9H-purin-9-yl)cyclopent-2-en-1-yl)methoxy)(3-(2-methoxyethoxy)phenoxy)phosphoryl)-L-alaninate], for which, under setting [2], the EC50 was less than 10 nM. As for `COc1nc(N)nc2c1ncn2[C@H]1C=C[C@@H](COP(=O)(OCCSC(=O)C(C)(C)C)Oc2ccccc2)C1` (stereo partly drawn) [Example 4-7-2, S-(2-(((((1 S,4R)-4-(2-amino-6-methoxy-9H-purin-9-yl)cyclopent-2-en-1-yl)methoxy) (phenoxy)phosphoryl)oxy)ethyl) 2,2-dimethylpropanethioate], the EC50 (read-out: Anti-AdV activity EC50; CRL-11516 cells infected with ADV6, 48 hours culture, concentration reducing dark brown-stained cells by 50%) fell in the range of 10 to 100 nM.
